Reference: US10174067B2, “Type of cytidine derivative and application thereof” (priority 2014, dated 2019)

Experiment: in vivo
Conditions: female, mouse, in vivo, ip
Summary of the method: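 Female SPF ICR mice received a single ip dose in ethanol/Cremophor EL/saline (5:5:90), with dose lowered after deaths and raised otherwise. MTD defined as dose causing no death, no >10% weight loss versus Day 0 and no significant side effects; daily weights and twice-daily clinical observation over 7-14 days.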

Structure (SMILES)	MTD at 7 days [mg/kg]
O=C(COc1nc(Cl)c(Cl)cc1Cl)OC[C@H]1O[C@@H](n2cc(Br)c(NC(=O)OCc3ccccc3)nc2=O)C(F)(F)C1O (some centres unmarked) [Compound G10]	400
CCCCOC(=O)Nc1nc(=O)n([C@@H]2O[C@H](COC(=O)Cn3cnc([N+](=O)[O-])c3)C(O)C2(F)F)cc1I (some centres unmarked) [Compound G12]	400
